Key:
Assay type in all cases: cell-based
[1] = system: TNFα release from THP-1 cells; assay: Primary screen (Example 1b): LPS-stimulated TNFα release from THP-1 cells, overnight pre-incubation, HTRF; conditions: Homo sapiens, overnight with inhibitor, 100 ng/mL LPS, 3 h, normalised to 10 μM Batimastat
Method: (§1) Two separate screens to identify novel small molecule inhibitors of iRhom2/ADAM17 activity were developed. […] Therefore, the primary screen for small molecule inhibitors of iRhom2/ADAM17 was a screen for inhibitors that blocked the release of TNFα from LPS-stimulated THP-1 human myeloid cells, a process that depends on iRhom2 and ADAM17. Since the release of TNFα from THP-1 cells can be blocked at many stages of the LPS/TLR4/iRhom2/ADAM17 pathway, a secondary screen was performed for another iRhom2/ADAM17 selective substrate, Kit-ligand 2 (KL-2) (Maretzky T et al. (July 2013), “iRhom2 controls the substrate selectivity of stimulated ADAM17-dependent ectodomain shedding”, PNAS 110(28): 11433-11438) in a different human cell type, human embryonic kidney cells (HEK 293).
THP-1 cells were plated in low volume 384 wells (10,000 cells per well in 12.6 μL RPMI medium) together with inhibitors or 10 μM BB94 and incubated over night. The next day, TNFα shedding was initiated by stimulation of THP-1 cells with 100 ng/mL LPS (1.8 μL of an 800 ng/mL LPS stock) for 3 hrs at 37° C. The extent of released TNFα was detected with the corresponding HTRF antibodies labeled with europium cryptate (donor) and d2 (acceptor). The HTRF signal was generated by proximity of europium cryptate and d2. All detection reagents were purchased from Cisbio. TNFα detection was performed according to the manufacturer's protocol (Product Insert for Cisbio TNFα (h) Kit Part #62HTNFAPEG & 62HTNFAPEH;
Low volume 384 well plates were pre-coated with small molecule library compounds for a final concentration of 20 μM in a 15 μL reaction, or 0.75 μL of 200 μM stock of BB94 in 5% DMSO (final concentration 0.25%). 12.6 μL of cell suspension [8E5/mL; 10,000 cells/well; culture RPMI medium] and pre-incubated at 37° C., 5% CO2, over night. The next day, 1.8 μL of an 800 ng/mL LPS stock was added [final concentration 100 ng/mL in 15 μL assay] and the cells were incubated at 37° C., 5% CO2, for 3 h. Subsequently, 3 μL of the HTRF-mix [used at 1:3 dilution of cisbio HTRF human TNF] was added and the plates were incubated for an additional 2 hrs at 25° C. After an incubation at room temperature for 2 h, the HTRF readout was performed. Then data evaluation for normalization against the 10 μM Batimastat control (=100% […]) was applied.

[2] = system: KL2 release from HEK-293 cells; assay: Secondary screen (Example 3b): PMA-stimulated KL2 release from HEK-293 cells, AP readout; conditions: Homo sapiens, HEK293, HEK-293 cells expressing KL2-AP, PMA 100 ng/mL, 2 h, read-out: Secondary Screen IC50 KitL2
Method: as §1
(§2) Expression plasmids for alkaline phosphatase (AP)-fused human KL2 and TGFα had been previously designed and generated through gene synthesis followed by subcloning into the pcDNA3.1(+)/Hygro expression vector. […] Subsequently, DNA amplifications were performed to obtain sufficient amounts of the expression vectors. The quality of DNA and gene sequences were confirmed through restriction digest and Sanger sequencing. In parallel, cell culture of HEK-293 cells was initiated. Master and working cell banks were prepared, scaled up and transfected with the respective constructs by electroporation. During cell culturing, cell density and viability were monitored to ensure optimal conditions for the transfections. After PMA stimulation, AP-coupled KL2 or TGFα were detected by measurement of AP activity in the supernatant.
(§3) After electroporation, cells were further cultured in presence of selection antibiotics, hygromycin B, to generate stably transfected polyclonal cell pools. For both assays, KL2 and TGFα shedding, the respective selected pool turned out to be suitable. Final assay conditions were determined for the selected pools. For all experiments, batimastat (BB94, 10 μM) was used as positive control for full inhibition of KL2 or TGFα shedding.
(§4) The wells of sterile 384-well flat bottom clear plates for KL2-AP assays were coated with 10 μL of 0.1 mg/mL poly-d-lysine for 3-4 hr at 25° C. or overnight at 4° C., then washed 2× with PBS and patted dry. 60 μL of cells (40,000/well) were added to the sterile 384-well plate and incubated in Optimem (with 2% FCS and 1% Pen-strep) overnight at 37° C. (5% CO2). After incubation overnight, 55 μL medium were removed with a BioTek EL406 and 10 μL of prediluted compounds were added to the cells for a final concentration of 20 μM. After incubation for 15 min, 15 μL of PMA (100 ng/mL final conc.) were added. The cells were incubated for 2 h at 37° C. (5% CO2). Then, the plates were centrifuged for 5 min at 1000 rpm and 3 μL of the supernatant was transferred to a fresh 384 well plate and 9 μL of AP Balance Buffer was added per well. 12 μL of pNPP p-nitrophenyl phosphate (final 1 M pNPP) was added. AP reaction was performed for 1 h at 37° C. The reaction was stopped by addition of 12 μL of NaOH (1 M final conc.), the plates were centrifuged to remove air bubbles and the absorbance of pNP was measured at 405 nm.

[3] = system: TGFα release from HEK-293 cells; assay: Counter screen (Example 4b): PMA-stimulated TGFα release from HEK-293 cells, AP readout; conditions: Homo sapiens, HEK293, HEK-293 cells expressing TGFα-AP, PMA 100 ng/mL, 2 h
Method: (§5) A tertiary counterscreen was also performed to monitor the release of TGFα, which is a substrate of iRhom1/ADAM17 and iRhom2/ADAM17, so its release should not be blocked by an iRhom2-selective inhibitor (Maretzky T et al. (July 2013), “iRhom2 controls the substrate selectivity of stimulated ADAM17-dependent ectodomain shedding”, PNAS 110(28): 11433-11438; and Li X et al. (May 2015), “iRhoms 1 and 2 are essential upstream regulators of ADAM17-dependent EGFR signaling”, PNAS 112(19): 6080-6085).
as §2, §3
as §4, with “for TGF-AP” for “for KL2-AP”, “cells (20,000/well)” for “cells (40,000/well)”, “and 12” for “and 3”, “well plate.” for “well plate and 9 μL of AP Balance Buffer was added per well.”

[4] = system: KL2 release from HEK-293 cells; assay: Secondary screen (Example 3a): PMA-stimulated KL2 release from HEK-293 cells, AP readout; conditions: Homo sapiens, HEK293, HEK-293 cells expressing KL2-AP, PMA 500 ng/mL, 2 h, read-out: Secondary Screen XC50 KL2
Method: as §1
(§6) First, expression plasmids for alkaline phosphatase (AP)-fused KL2 and TGFα were designed and generated through gene synthesis followed by subcloning into the pcDNA3.1(+)/Hygro expression vector. […] Subsequently, DNA amplifications were performed to obtain sufficient amounts of the expression vectors. The quality of DNA and gene sequences were confirmed through restriction digest and Sanger sequencing. In parallel, cell culture of THP-1 and HEK-293 cells was initiated. Master and working cell banks were prepared. Both cell lines were scaled up and transfected with the respective constructs by electroporation. During cell culturing, cell density and viability were monitored to ensure optimal conditions for the transfections. After PMA stimulation, AP-coupled KL2 or TGFα were detected by measurement of AP activity in the supernatant. […] In contrast, THP-1 cells turned out to be not a suitable transfection host resulting in a loss of cell viability after transfection. The decision was made to proceed with HEK-293 for both selectivity assays and to establish polyclonal cell lines stably expressing AP-coupled KL2 or TGFα.
as §3, with “(30” for “(BB94, 10”
(§7) 60 μL of cells (40,000/well) were added to a sterile 384-well plate. After incubation overnight at 37° C. (5% CO2), 50 μL medium were removed and 20 μL of prediluted compounds were added to the cells. After incubation for 15 min, 20 μL of PMA (500 ng/mL final conc.) were added. The cells were incubated for 2 h at 37° C. (5% CO2). Then, 20 μL of the supernatant was transferred to a fresh plate and 20 μL of pNPP (5 mM final conc.) was added. AP reaction was performed for 1 h at RT. The reaction was stopped by addition of 20 μL of NaOH (1 M final conc.) and the absorbance of pNP was measured at 405 nm.

[5] = system: TNFα release from THP-1 cells; assay: Primary screen (Example 1a): LPS-stimulated TNFα release from THP-1 cells, HTRF; conditions: Homo sapiens, 100 ng/mL LPS, 3 h, normalised to 50 μM Batimastat, read-out: Primary Screen XC50 TNFα
Method: as §1
THP-1 cells were plated in 384 or 1,536 wells and transferred on the ultra-high throughput screening (uHTS) platform Mark III, and TNFα shedding was initiated by LPS stimulation of THP-1 cells. The extent of released TNFα was detected with the corresponding HTRF antibodies labeled with europium cryptate (donor) and d2 (acceptor). The HTRF signal was generated by proximity of europium cryptate and d2. All detection reagents were purchased from Cisbio. TNFα detection was performed according to the manufacturer's protocol (Product Insert for Cisbio TNFα (h) Kit Part #62HTNFAPEG & 62HTNFAPEH;
7.5 nL compound and controls in DMSO [10 μM in assay; 0.25% DMSO in 3 [μL Assay] were dissolved in 2 μL cell suspension [2.4E6/mL; 4800 cells/well; culture w/o PenStrep], pre-incubated at 37° C., 5% CO2, for 15 min with 1 μL LPS [100 ng/mL in 3 μL assay]. The cells were incubated at 37° C., 5% CO2, for 3 h with 2 μL of the HTRF-mix [1:300 f.c.]. After an incubation at room temperature for 2 h or longer, the HTRF readout was performed. Then data evaluation for normalization against the 50 μM Batimastat control (=100% […]) was applied. As an additional control, 300 nM Batimastat was used to monitor performance of cells and assay sensitivity over time.

[6] = system: TGFα release from HEK-293 cells; assay: Counter screen (Example 4a): PMA-stimulated TGFα release from HEK-293 cells, AP readout; conditions: Homo sapiens, HEK293, HEK-293 cells expressing TGFα-AP, PMA 100 ng/mL, 2 h, read-out: Counter Screen XC50 TGFα
Method: as §5, §6
as §3, with “(30” for “(BB94, 10”
as §7, with “of cells (20,000/well) were added” for “of cells (40,000/well) were added”, “of PMA (100 ng/mL final” for “of PMA (500 ng/mL final”, “was added. The AP reaction” for “was added. AP reaction”

SMILES	IC50 [1]	IC50 [2]	IC50 [3]	IC50 [4]	IC50 [5]	IC50 [6]
O=C(c1c(Cl)cccc1Cl)N1CCC(Cc2ccc3c(c2)OCO3)CC1 [Compound 43]	3.97 µM	35.2 µM	> 40 µM	–	–	–
O=C1Nc2ccccc2/C1=N\Nc1nc(Nc2ccccc2)nc(Nc2ccccc2)n1 [Compound 46]	2.72 µM	11.1 µM	> 40 µM	–	–	–
O=C(NC1CCCCCCC1)C1CCCN(c2nc3ccc(Br)cc3[nH]2)C1 (stereo not drawn) [Compound 47]	2.41 µM	5.52 µM	> 40 µM	–	–	–
Cc1ccccc1Nc1nc(NCCCO)nc2c1cnn2-c1ccccc1 [Compound 50]	10.9 µM	16.1 µM	> 40 µM	–	–	–
Cc1ccsc1C1Nc2ccc3ccccc3c2C2=C1C(=O)CCC2 (stereo not drawn) [Compound 45]	> 32 µM	28 µM	> 40 µM	–	–	–
Cc1cc(NCCCn2ccnc2)n2ncc(-c3ccc(Cl)cc3)c2n1 [Compound 48]	13.2 µM	> 40 µM	> 40 µM	–	–	–
O=C(NCCc1cccnc1)c1ccc(-c2cc(-c3ccc(N4CCCCC4)cc3)n[nH]2)cc1 [Compound 44]	10.8 µM	> 40 µM	> 40 µM	–	–	–
Cc1cc(C)c2nc(N3CCNCC3)sc2c1 [Compound 49]	13.2 µM	> 40 µM	> 40 µM	–	–	–
c1ccc(-c2ncn(CCCc3cccnc3)c2-c2ccncc2)cc1 [Compound 20]	–	–	–	> 128 µM	< 0.802 µM	> 128 µM
CNc1ccc2ncc(-c3cccc(O)c3)n2n1 [Compound 22]	–	–	–	8.8 µM	27.8 µM	> 128 µM
C=C(C)Cn1c(=O)nc(N)c2c(-c3ccc(OC)cc3)csc21 [Compound 27]	–	–	–	> 128 µM	< 0.802 µM	> 128 µM
CCCn1c(=O)nc(N)c2c(-c3ccc(OC)cc3)csc21 [Compound 28]	–	–	–	> 128 µM	1.7 µM	> 128 µM

— patent US20240390355A1, “IRHOM2 INHIBITORS AND USES THEREOF” (NEW YORK SOCIETY FOR THE RELIEF OF THE RUPTURED AND …, priority 2021, published 2024)
